According to patent US20100130737A1, “Regulating Agent of GPR34 Receptor Function” (TAKEDA PHARMACEUTICAL COMPANY LIMITED, priority 2005, published 2010):

Experiments:
[1] = system: rat peritoneal mast cells; test: Degranulation inhibiting activity in rat peritoneal mast cells (β-hexosaminidase release); format: cell-based; settings: for degranulation of rat peritoneal mast cells due to LysoPS and DNP-BSA stimulation: 10 μM compound, co-stimulation with 3 μM LysoPS and 100 ng/ml DNP-BSA = 100%, spontaneous degranulation = 0%
Description: Ice-cooled mast cell medium (hereunder called MCM: 150 mM NaCl, 3.7 mM KCl, 3.0 mM NaH2PO4, 3.5 mM KH2PO4, 5.6 mM (D)-Glucose, 0.1% bovine serum albumin (BSA), 0.1% gelatin, 10 U/ml heparin, pH 6.8) was injected intraperitoneally into rats, about 40 ml per rat, the abdomens were massaged for about 2 minutes and then opened along the median line, and ascites was collected. The collected ascites were filtered with a cell strainer (Becton Dickinson) and centrifuged for 7 minutes at 50×g, and the precipitated cells were suspended in MCM and then centrifuged again for 7 minutes at 50×g. The precipitated cells were suspended in 5 ml of MCM, layered over 2 ml of 32% (w/v) BSA solution (dissolved in 0.9% NaCL), and left for 20 minutes at room temperature. This was centrifuged for 15 minutes at room temperature at 300×g, the cells between the MCM and BSA solution were discarded, and the precipitated cells were suspended in MCM and washed twice by being centrifuged for 5 minutes at 300×g. The precipitated cells were suspended in assay buffer (150 mM NaCl, 3.7 mM KCl, 3.0 mM NaH2PO4, 3.5 mM KH2PO4, 0.9 mM CaCl2, 5.6 mM (D)-Glucose, 0.01% BSA, pH 6.8), and these cells were used in the following test.
RPMC cells suspended in assay buffer were passively sensitized by adding 10 μg/ml of monoclonal mouse anti-DNP-IgE (Seikagaku) and leaving them for 30 minutes on ice. After 5 minutes of centrifugation at 300×g, the precipitated cells were washed 3 times with assay buffer. The RPMC cells suspended in assay buffer were dispensed on 96-well V-bottom plates, 2×10^4 cells per well. The assay was performed with n=3 under each set of reaction conditions. The plates were maintained for 5 minutes at 37° C., the test compound was added, and after 15 minutes lysoPS (Sigma) was added to a final concentration of 3 μM and DNP-BSA (Calbiochem) to a final concentration of 100 ng/ml for a final capacity of 200 and left on a water bath at 37° C. After 20 minutes, the plate was ice cooled to stop RPMC activation, followed by 5 minutes of centrifugation at 300×g, and β-hexosaminidase activity in the supernatant was measured using 4-methylumbelliferyl-2-acetamido-2-deoxy-β-D-glucopyranoside (Wako Pure Chemical) degradation as the indicator.

[2] = molecular target: T1, human GPR34 (Homo sapiens, UniProt Q9UPC5); test: Human GPR34 antagonist activity indicated by changes in intracellular calcium concentration (FLIPR); format: cell-based; set-up: expressed in transfected cells; host or cells: CHO cells (human GPR34CHO line) stably transfected with pCR3.1 human lung Gα16; settings: CHO cells expressing human GPR34/Gα16, against 2 μM lysoPS final concentration, Fluo-3AM
Description: CHO cells expressing human GPR34/Gα were diluted to 3×10^4/100 μl in cell culture medium [nucleic acid-free Minimum Essential Alpha Medium (Invitrogen) containing 10% dialyzed fetal bovine serum (Invitrogen) 0.5 mg/ml Geneticin (Invitrogen), penicillin and streptomycin (Invitrogen)], dispensed 100 μl per well into a Black walled 96-well plate (Costar), and cultured overnight in a CO2 incubator. Changes in intracellular calcium concentration were measured with a FLIPR (Molecular Device) by the methods described below.
50 μg of Fluo-3AM (Dojindo) was dissolved in 21 μl of DMSO (Dojindo), an equal amount of 20% pluronic acid (Molecular Probes) was added and mixed, and this was added to 10.6 ml of assay buffer [prepared by adding 20 ml of 1 M HEPES (pH 7.4, Dojindo) to HBSS (Invitrogen), and then adding 10 ml of a solution obtained by dissolving 710 mg of Probenecid (Sigma) in 5 ml of 1 N NaOH and then adding and mixing 5 ml of the HBSS/HEPES solution)] with 105 μl of fetal bovine serum added thereto to prepare a fluorescent dye solution. The medium was removed from the cell plate, 100 μl per well of the fluorescent dye solution was immediately poured in, and the cells were cultured for 1 hour in a CO2 incubator to incorporate the fluorescent dye into the cells. After culture, the cells were washed with the aforementioned assay buffer. The compound was dissolved in DMSO (Wako Pure Chemical), diluted with DMSO as necessary, added to the aforementioned assay buffer to the target concentration and poured into the plate. To measure antagonist activity, 8 μM lysophosphatidyl serine (lysoPS, Alexis) solution (2 μM final concentration during reaction) was poured into the plate, which was set in the FLIPR. Following these preliminaries, the agonist effect was measured in the FLIPR by measuring changes in intracellular calcium concentration up to 180 seconds after addition of the sample, and after 200 seconds lysoPS was added and the antagonist effect was measured. In the case of the agonist effect, the EC50 value of the added compound was calculated from the dose reaction curve using changes in fluorescent strength from 0 to 180 seconds after the start of the reaction. In the case of the antagonist effect, the IC50 was calculated from the dose reaction curve using changes in maximum fluorescent strength after 200 to 380 seconds of reaction time. The data was analyzed using “GraphPad PRISM4”.

[3] = molecular target: T1, human GPR34; test: Human GPR34 antagonist activity as indicated by cAMP in human GPR34-expressing CHO cells; format: cell-based; set-up: expressed in transfected cells; settings: for cAMP (%): buffer only = 0%, 2.5 μM Forskolin = 100%
Description: Human GPR34-expressing CHO cells were maintained in nucleic acid-free MEM-a (Invitrogen) containing 10% dialyzed FBS (Invitrogen) and penicillin and streptomycin (BioWhittaker) (hereunder described as culture medium), and on the day before assay the cells were stripped with trypsin/EDTA (Invitrogen), centrifuged, re-suspended in culture medium and seeded 2×10^5 per well, 1 ml/well on a 24-well plate (Nunc). The seeded cells were cultured overnight at 37° C. in a CO2 incubator, and subjected to cAMP assay the next day.
The plate was washed twice, 500 μL/well with Hank's balanced salt solution (HBSS, Invitrogen) containing 20 mM HEPES (1 M HEPES solution, Dojindo) with 0.2 mM 3-isobutyl-1-methylxanthine (IBMX, Wako Pure Chemical) added thereto (hereunder described as assay buffer (HBSS+HEPES-FIBMX)), and kept warm for 30 minutes in a water bath at 37° C. Next, 250 μL of assay buffer (HBSS+HEPES+IBMX) was substituted, and the plate was kept for a further 15 minutes in a water bath at 37° C. 2 μl of GPR34 antagonist compound solution at 250× the final concentration was added and gently stirred with a plate mixer, 2 μL, of lysoPS (Sigma or Alexis) at 250× the final concentration and 5 μM (2× the final concentration) of Forskolin (Wako Pure Chemical) were added, and 250 μL, of assay buffer (HBSS+HEPES+IBMX) was added and reacted for 30 minutes in a water bath at 37° C. In the case of the human GPR34-expressing CHO cells, 2 μL of 50 μM lysoPS was added so that the final concentration would be roughly the EC50 value of 0.2 μM. After completion of the reaction, intracellular cAMP was detected by competitive EIA using a cAMP Screen System (Applied Biosystems). After completion of the assay, 200 μL, of the Assay/lysis buffer for the cAMP Screen System was substituted, and intracellular cAMP was extracted by maintaining the cells for about 40 minutes at 37° C. EIA was then performed in accordance with the cAMP Screen Systems protocols to assay intracellular cAMP.
Relative percentage values were calculated by Microsoft Excel with the cAMP level with only assay buffer (HBSS+HEPES+IBMX) added (“None” in the table) given as 0%, and the cAMP level with the final concentration 2.5 μM Forskolin added given as 100%.

[4] = system: rat peritoneal mast cells; test: Degranulation inhibiting activity in rat peritoneal mast cells (β-hexosaminidase release); format: cell-based
[5] = molecular target: T1, human GPR34; test: Reactivity of human GPR34CHO cell strain stably expressing Gα16 to lysophosphatidyl serine (FLIPR); format: cell-based; set-up: expressed in transfected cells; host or cells: CHO cells (human GPR34CHO line) stably transfected with pCR3.1 human lung Gα16; settings: Fluo 3-AM, 3 minutes after addition; concentration-dependent
Description: The reactivity of the human GPR34CHO cell strain stably expressing Gα16 to lysophosphatidyl serine (lysoPS) was investigated by the FLIPR (Molecular Devices) assay method. The fluorescent calcium indicator Fluo 3-AM (Wako Pure Chemical) was incorporated into the human GPR34CHO cell strain stably expressing Gα16, and the cells were washed with assay buffer. Various concentrations of 50 μl lysophosphatidyl serine solution were added to cells immersed in 100 μl of assay buffer, and the intracellular fluorescent strength 3 minutes after addition was measured by FLIPR.

T1 sequence (Q9UPC5 whole entry): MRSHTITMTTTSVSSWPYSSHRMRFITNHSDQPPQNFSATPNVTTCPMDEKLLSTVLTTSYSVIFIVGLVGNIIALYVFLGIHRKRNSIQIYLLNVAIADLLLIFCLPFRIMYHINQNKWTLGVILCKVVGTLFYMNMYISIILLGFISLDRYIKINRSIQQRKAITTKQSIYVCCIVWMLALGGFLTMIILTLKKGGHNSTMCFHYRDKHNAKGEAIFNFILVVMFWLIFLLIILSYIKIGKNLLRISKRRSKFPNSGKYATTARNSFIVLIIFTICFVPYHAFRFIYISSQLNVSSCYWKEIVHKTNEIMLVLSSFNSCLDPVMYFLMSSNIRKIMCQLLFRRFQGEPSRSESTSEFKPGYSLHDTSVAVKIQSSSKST

| Molecule | degranulation of rat peritoneal mast cells due to LysoPS and DNP-BSA stimulation [1] | melting point | IC50 [2] | further results |
| --- | --- | --- | --- | --- |
| CN(C(=O)c1cn2ccc(-c3ccc(Cl)cc3)cc2n1)[C@@H](Cc1ccc(OCc2ccccc2)cc1)C(=O)O [Example E51, O-Benzyl-N-{[7-(4-chlorophenyl)imidazo[1,2-a]pyridin-2-yl]carbonyl}-N-methyltyrosine] | 5.0% | 222 °C | ≤ 1 µM |  |
| O=C(N[C@@H](Cc1ccc(OCc2ccc(F)cc2)cc1)C(=O)O)c1cc2ccc(-c3ccc(Cl)cc3)cc2o1 [Example C157, N-{[6-(4-Chlorophenyl)-1-benzofuran-2-yl]carbonyl}-O-(4-fluorobenzyl) tyrosine] | 4.8% | 166 to 168 °C | ≤ 1 µM |  |
| lisophosphatidylserine [lysoPS] |  |  |  | RPMC degranulation ([1]; 100 ng/ml DNP-BSA stimulus + 3 μM lysoPS added simultaneously): 36.7%; cAMP (%) ([3]; 0.2 μM LysoPS + 2.5 μM Forskolin): 43%; EC50 ([3]; human GPR34-expressing CHO cells, cAMP assay, read-out: EC50 value of lysoPS): ~0.2 µM; RPMC degranulation ([4]; 100 ng/ml DNP-BSA stimulus + 0.1 μM lysoPS added simultaneously): 8.4%; RPMC degranulation ([4]; 100 ng/ml DNP-BSA stimulus + 0.3 μM lysoPS added simultaneously): 14.7%; RPMC degranulation ([4]; 100 ng/ml DNP-BSA stimulus + 1 μM lysoPS added simultaneously): 26.0%; RPMC degranulation ([4]; 100 ng/ml DNP-BSA stimulus + 10 μM lysoPS added simultaneously): 45.2% |
| Cc1ccc(COc2ccc(C[C@H](NC(=O)c3cn4ccc(-c5ccc(Cl)cc5)cc4n3)C(=O)O)cc2)cc1 [Example E59, N-{[7-(4-Chlorophenyl)imidazo[1,2-a]pyridin-2-yl]carbonyl}-O-(4-methylbenzyl)tyrosine] | 5.1% | 262 °C | ≤ 1 µM |  |
| O=C(N[C@@H](Cc1ccc(OCc2ccc(F)cc2)cc1)C(=O)O)c1cc2cc(-c3ccc(Cl)cc3)ccc2s1 [Example C133, N-{[5-(4-Chlorophenyl)-1-benzothiophene-2-yl]carbonyl}-O-(4-fluorobenzyl)tyrosine] | 12.4% | 189 to 190 °C | ≤ 1 µM |  |
| O=C(Cc1ccc(OCc2ccc(F)cc2)cc1)NC1(C(=O)O)Cc2ccc(-c3ccc(Cl)cc3)cc2C1 (centres unmarked) [Example B134] |  | 208 to 209 °C |  | cAMP (%) ([3]; 10 μM compound + 2.5 μM Forskolin + 0.2 μM LysoPS): 299%; restoration of cAMP levels (in words) ([3]; at 10 μM): restored cAMP levels to at or above the level before Forskolin stimulus |
| O=C(N[C@@H](Cc1ccc(OCc2ccc(Cl)cc2)cc1)C(=O)O)c1cn2ccc(-c3ccc(Cl)cc3)cc2n1 [Example E63, O-(4-Chlorobenzyl)-N-{[7-(4-chlorophenyl)imidazo[1,2-a]pyridin-2-yl]carbonyl}tyrosine] | 5.7% | 261 °C | ≤ 1 µM |  |
| lysophosphatidyl serine |  |  |  | intracellular fluorescent strength (intracellular calcium), in words [5]: caused a rise in intracellular fluorescent strength |
